Where two headings read alike, the source gives them in different places.
Key:
[1] = in vivo; conditions: mouse, in vivo, ip
Experimental: The first phase of the ADD Program involved performing tests on male Carworth Farms #1 mice. […] Three tests were performed:
In the second phase of the ADD program protocol, estimates of anticonvulsant activity and neurotoxicity are quantified. The median effective dose (ED50) in the MES, sc Met, and rotorod test is determined. In the case of a compound with apparent activity in only one anticonvulsant test, testing is carried out in the other up to, and in some cases beyond, doses which produce neurological deficit. Compounds which fail to produce minimal neurological deficit are tested whenever possible to doses ten times their lowest anticonvulsant ED50. […] The rotorod ED50 is determined at the time of the peak neurologic deficit.

[2] = Neurotoxicity, rats ip; conditions: 100 mg/kg
Experimental: The rotorod test is used to elevate neurotoxicity. The animal is placed on a 1 inch diameter knurled plastic rod rotating at 6 rpm. […] Neurologic toxicity is defined as the failure of the animal to remain on the rod for 1 minute and the results are expressed as the number of animals protected/the number of animals tested.
The toxicity evaluation for the commercial agents as previously indicated was based on the onset of ataxia.

[3] = test system: Amygdala Kindled Seizures; assay: Suppression of amygdala kindled seizures; type: in vivo
Experimental: Compounds 12 and 27 were evaluated in our laboratory for suppression of amygdala kindled seizures.

[4] = test system: electroshock seizures; assay: MES maximal electroshock test, rats ip; type: in vivo; conditions: 100 mg/kg
Description: (§1) Maximal electroshock seizures are elicited with a 60-cycle alternating current of 50 mA intensity (5-7 times that necessary to elicit minimal electroshock seizures) delivered via corneal electrodes for 0.2 seconds. A drop of 0.9% saline is instilled in the eye prior to application of the electrodes in order to […].

[5] = test system: Corneal Kindled rats; assay: Corneal kindling; type: in vivo
Experimental: Corneal kindling studies were performed in our laboratories on 12 and 27 and the results are shown in Tables XI and XII and FIGS. 1A and 1B. Comparative data for the commercial products are included. Seizures evoked in electroshock-kindled rats provide a suitable model consistent with complex partial seizures evolving into generalized motor seizures in humans.
^a Rats kindled to Stage 5. Endpoint was reduction from Stage 5 to […]

[6] = in vivo; conditions: rat, po
Description: (§2) This oral screen is designated as phase VI.

[7] = test system: Maximal electroshock seizures; assay: MES maximal electroshock seizure test, mice ip; type: in vivo; design: TPE (time of peak effect), activity: unit not given here; conditions: ip; for responders at 10 mg/kg: read-out: MES, animals protected/tested (converted); for responders at 300 mg/kg: read-out: MES, animals protected/tested
Experimental: Three tests were performed:
1. MES--Electroshock Seizure Test
as §1

[8] = test system: Subcutaneous Pentylenetetrazol seizure; assay: sc Met subcutaneous pentylenetetrazol (Metrazol) seizure test, mice; type: in vivo; conditions: Mus musculus, sc; for responders at 10 mg/kg: read-out: scMet, animals protected/tested; for responders at 300 mg/kg: read-out: scMet, animals protected/tested (converted)
[9] = test system: pentylenetetrazol; assay: Phase V quantification against pentylenetetrazol; type: in vivo; conditions: 12.5, 25, 50 and 100 mg/kg
Experimental: (§3) Both 12 and 27 were evaluated in Phase V of the ADD Program evaluation scheme. Phase V provides quantification against bicuculline, picrotoxin, pentylenetetrazol, and strychnine. This screen provides information on the mechanism of action of the anticonvulsant activity. Bicuculline, picrotoxin, and strychnine correspond to GABA inhibitory function, chloride channel inhibition and inhibition by glycine respectively.

[10] = test system: bicuculline; assay: Phase V quantification against bicuculline; type: in vivo; conditions: 12.5, 25, 50 and 100 mg/kg
Experimental: as §3

[11] = test system: strychnine; assay: Phase V quantification against strychnine; type: in vivo; conditions: 12.5, 25, 50 and 100 mg/kg
Experimental: as §3

[12] = test system: seizures; assay: Anticonvulsant evaluation (ASP phase I / overall); type: in vivo, mice
How it was run: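 Male Carworth Farms #1 mice; maximal electroshock seizures elicited by 60-cycle AC, 50 mA, 0.2 s via corneal electrodes after a drop of 0.9% saline in the eye. Animals observed for 30 minutes.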

[13] = test system: picrotoxin; assay: Phase V quantification against picrotoxin; type: in vivo; conditions: 12.5, 25, 50 and 100 mg/kg
Experimental: as §3

[14] = test system: Maximal electroshock seizures; assay: Phase VI oral MES test, rats; type: in vivo; conditions: oral; for responders at 50 mg/kg: Rattus norvegicus, read-out: MES, animals protected/tested (converted)
Description: as §1, §2

[15] = Kase et al., Jap. J. Pharmacol. 1974; cited from earlier work

COC(=O)C1C(=O)C=C(NCc2ccccc2)CC1C (stereo not drawn) [Compound 12, Methyl 4-(benzyl)amino-6-methyl-2-oxocyclohex-3-en-1-oate]
TD50 [1]: > 500 mg/kg
TPE (time of peak effect), toxicity [1]: 1
selectivity ratio [1]: 7.73
Tox, animals toxic/tested ([2]; 0.25 h (Table X)): 0/4
Tox, animals toxic/tested ([2]; 0.50 h (Table X)): 0/4
Tox, animals toxic/tested ([2]; 1.00 h (Table X)): 0/4
Tox, animals toxic/tested ([2]; 2.00 h (Table X)): 0/4
Tox, animals toxic/tested ([2]; 4.00 h (Table X)): 0/4
toxicity ([2]; ip, four hour evaluation): No toxicity was noted
Afterdischarge Amygdala: Duration ([3]; 500 mg/kg): 73.9 s
Afterdischarge Cortex: Duration ([3]; 500 mg/kg): 78.9 s
Afterdischarge Cortex: Latency ([3]; 500 mg/kg): 2.8 s
Behavioral Seizure: Duration ([3]; 500 mg/kg): 79.5 s
Behavioral Seizure: Latency ([3]; 500 mg/kg): 2.1 s
Forelimb Clonus: Duration ([3]; 500 mg/kg): 44.2 s
Forelimb Clonus: Latency ([3]; 500 mg/kg): 9.3 s
Seizure Stage ([3]; 500 mg/kg): 5.0
suppression of amygdala kindled seizures ([3]; in vivo): no significant activity
MES, animals protected/tested ([4]; 0.25 h (Table X)): 4/4
MES, animals protected/tested ([4]; 0.50 h (Table X)): 4/4
MES, animals protected/tested ([4]; 1.00 h (Table X)): 4/4
MES, animals protected/tested ([4]; 2.00 h (Table X)): 4/4
MES, animals protected/tested ([4]; 4.00 h (Table X)): 3/4
% Reduction ([5]; 50 mg/kg): 17%
% Reduction ([5]; 60 mg/kg): 23%
% Reduction ([5]; 75 mg/kg): 75%
ED50 ([5]; Rattus norvegicus, po, 0.5 h, read-out: ED50 (reduction from Stage 5 to Stage 4)): 41.9 mg/kg
TD50 [6]: > 500 mg/kg
selectivity ratio [6]: 18.7
Tox, animals toxic/tested ([6]; 50 mg/kg): 0/4
responders at 10 mg/kg ([7]; Mus musculus, 0.5 h, 30 min): 66.7%
responders at 300 mg/kg ([7]; Mus musculus, 0.5 h, 30 min): 100%
responders at 10 mg/kg ([7]; Mus musculus, 4 h, 4 h): 0%
responders at 300 mg/kg ([7]; Mus musculus, 4 h, 4 h): 0%
ED50 ([7]; Mus musculus, Phase II, time of peak effect): 64.7 mg/kg
TPE (time of peak effect), activity ([7]; Phase II): 0.5
responders at 10 mg/kg ([8]; 0.5 h, 30 min): 10%
responders at 300 mg/kg ([8]; 0.5 h, 30 min): 0%
responders at 10 mg/kg ([8]; 4 h, 4 h): 10%
responders at 300 mg/kg ([8]; 4 h, 4 h): 0%
protection against pentylenetetrazol [9]: uniformly inactive
protection against bicuculline [10]: uniformly inactive
protection against strychnine [11]: uniformly inactive
minimal effective dose ([12]; Mus musculus, ip, Phase I, read-out: ASP Classification): < 100 mg/kg
anticonvulsant activity ([12]; mouse, in vivo): highly active
protection against picrotoxin [13]: uniformly inactive
ED50 ([14]; Phase VI, rat): 26.8 mg/kg
responders at 50 mg/kg ([14]; 0.5 h, 0.50 h): 100%
responders at 50 mg/kg ([14]; 0.25 h): 50%
responders at 50 mg/kg ([14]; 1.00 h): 75%
responders at 50 mg/kg ([14]; 2.00 h): 50%
responders at 50 mg/kg ([14]; 4.00 h): 50%

CC1(C)CC(=O)C(CN2CCCCC2)=C(Nc2ccccc2Cl)C1 [MK 1-203, 5,5-dimethyl-3-(o-chloro)phenylamino-2-(N-piperidinylmethyl)cyclohex-2-ene-1-one]
pharmacological actions [15]: potent analgesics with morphine-like, as well as anticonvulsant and papaverine-like, actions

COc1cccc(C2=C(CN(C)CCc3ccccc3)C(=O)CC(C)(C)C2)c1 [MK 1-907, 5,5-dimethyl-3-(m-methoxy)phenyl-2-N-methyl-N-phenethylaminomethylcyclohex-2-ene-1-one]
pharmacological actions [15]: potent analgesics with morphine-like, as well as anticonvulsant and papaverine-like, actions

Reference: patent US5616615A, “Enaminone esters” (priority 1995, dated 1997)
